Consider 1 molecule from patent US20100144591A1, “BENZIMIDAZOLE DERIVATIVES AND METHODS OF USE THEREOF” (Schering Corporation, priority 2007, published 2010).

The test system of the assay is STZ-induced type 2 diabetic mice. The assay can be described thus: In vivo effect on glucose levels in diabetic mice. Particulars: 10 mg/kg/day in diet; relative to control mice and mice treated with rosiglitazone (5 mg/kg/day in diet). On the procedure: The leftmost black solid bar represents diabetic control mice, the second from left black solid bar represents mice treated for one week with rosiglitazone at 5 mg/kg/day; the third from left black solid bar represents mice treated for one week with Compound 174 at 10 mg/kg/day; the fourth from left black solid bar represents mice treated for one week with Compound 174 at 1 mg/kg/day; and the white bar represents nondiabetic control mice. The y-axis indicates non-fasting glucose levels (mg/dl).
Five-week-old male ICR mice were purchased from Taconic Farm (Germantown, N.Y.) and placed on a “western diet” containing 45% (kcal) fat from lard and 0.12% (w/w) cholesterol. After 3 weeks of feeding, the mice were injected once with low dose streptozocin (STZ, ip 75-100 mg/kg) to induce partial insulin deficiency. […] The diabetic mice were then placed in one of groups: (1) a non-treated diabetic control group, (2) a group treated with rosiglitazone (5 mg/kg/day in diet); (3) a group treated with Compound 174(10/mg/kg in diet) for four weeks; and (4) a group treated with Compound 174 (1/mg/kg in diet) for four weeks.

With `Nc1cc(CN2CCC(C(=O)N3CCC(n4c(-c5ccc(F)c(F)c5)nc5cccnc54)CC3)CC2)ccn1` [Compound 174], the HbA1C levels entry was “significantly reduced” and the non-fasting glucose levels result is reported as “significantly reduced”.
